Assays:
PC-3 = experiment: Antiproliferative activity against androgen-independent prostate cancer PC3 cell line by MTS assay; format: functional, cell-based; conditions: Homo sapiens
Tubulin = Tubulin (Sus scrofa, UniProt P02554+P02550); experiment: Inhibition of porcine brain tubulin polymerization by GTP-induced assembly
MDA-MB-231 = experiment: Antiproliferative activity against estrogen-independent breast cancer MDA-MB-231 cell line by MTS assay; format: functional, cell-based; conditions: Homo sapiens
MCF7 = experiment: Antiproliferative activity against estrogen-dependent breast cancer MCF7 cell line by MTS assay; format: functional, cell-based; conditions: Homo sapiens

SMILES | IC50 (PC-3) [µM] | IC50 (Tubulin) [µM] | IC50 (MDA-MB-231) [µM] | IC50 (MCF7) [µM]
O=C1Nc2ccccc2/C1=C\c1ccc(O)cc1 | > 50 | > 40 | 17.5 | 25.7
COc1ccc2c(c1)NC(=O)/C2=C/c1ccc(O)cc1 | 0.64 | 18 | 2.6 | 0.23
COc1ccc2c(c1)NC(=O)/C2=C/c1cc(OC)c(OC)c(OC)c1 | 0.0082 | 4.5 | 0.0009 | 0.0007
O=C1Nc2cc(O)ccc2/C1=C\c1cccc(O)c1 | 19.5 | > 40 | 4.3 | 8.6
O=C1Nc2cc(O)ccc2/C1=C\c1ccc(O)cc1 | 44.7 | > 40 | 9.4 | 19.7
O=C1Nc2ccccc2/C1=C\c1cccc(O)c1 | > 50 | > 40 | 16.9 | 31.4
COc1ccc2c(c1)NC(=O)/C2=C/c1cccc(O)c1 | 0.54 | 9.1 | 1.4 | 0.39
COc1cc([C@@H]2c3cc4c(cc3[C@H](O)[C@H]3COC(=O)[C@H]23)OCO4)cc(OC)c1OC [PODOFILOX] | 0.013 |  | 0.008 | 

— ChEMBL document CHEMBL1141952, “Conformationally restricted analogs of Combretastatin A-4 derived from SU5416” (Bioorg Med Chem Lett, 2005)
